# PMC6934184, “Selective DNA-PKcs inhibition extends the therapeutic index of localized radiotherapy and chemotherapy” (The Journal of Clinical Investigation, 2019)
# Biological target: T1, CAMKK2 (CaMKK beta) (Homo sapiens, UniProt Q96RR4)
# T1 construct: purchased Thermo Fisher Scientific (Life Technologies) SelectScreen
# Experiment: SelectScreen LanthaScreen
# Type: binding
# Settings: read-out: % displacement
# How it was run: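 SelectScreen broad panel; activity (Z'LYTE, Adapta) plus binding formats. ATP: Km app for CSF1R Z'LYTE; 10 for CAMK1 Adapta. Readout = % per kinase.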
# T1 sequence (Q96RR4 whole entry): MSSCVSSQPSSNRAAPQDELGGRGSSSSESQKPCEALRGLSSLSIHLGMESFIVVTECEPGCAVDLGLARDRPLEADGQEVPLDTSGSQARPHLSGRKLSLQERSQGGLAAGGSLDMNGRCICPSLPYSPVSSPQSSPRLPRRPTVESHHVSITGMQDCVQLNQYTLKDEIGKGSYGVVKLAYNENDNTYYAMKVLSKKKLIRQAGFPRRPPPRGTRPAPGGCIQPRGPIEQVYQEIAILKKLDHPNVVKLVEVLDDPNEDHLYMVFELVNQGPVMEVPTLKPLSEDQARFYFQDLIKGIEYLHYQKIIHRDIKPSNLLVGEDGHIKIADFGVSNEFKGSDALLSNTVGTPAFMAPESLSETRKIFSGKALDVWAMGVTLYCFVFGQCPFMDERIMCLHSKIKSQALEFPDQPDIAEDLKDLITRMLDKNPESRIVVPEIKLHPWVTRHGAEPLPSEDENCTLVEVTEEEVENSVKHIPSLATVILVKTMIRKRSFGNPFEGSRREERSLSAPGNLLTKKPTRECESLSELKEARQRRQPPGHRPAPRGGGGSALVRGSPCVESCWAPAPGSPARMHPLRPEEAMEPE
structure (smiles),measurement,value
CN(C(=O)CN1CCOCC1)c1ccc2sc3c(-c4cccc5c(=O)cc(N6CC7CCC(C6)O7)oc45)cccc3c2c1 [NU5455],inhibition at 1 µM,0.9%
